Legend:
Test in all cases: relative viability (nuclei count vs DMSO), 5 days (fraction); higher = more cells survive
Dasatinib + Phenformin = compound: Cc1nc(Nc2ncc(C(=O)Nc3c(C)cccc3Cl)s2)cc(N2CCN(CCO)CC2)n1 [Dasatinib] + N=C(N)NC(=N)NCCc1ccccc1 [Phenformin] (partner 250 µM)
Procedure, shortened: (§1)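 After 5 days of treatment, lung cancer cells in 1536-well plates were fixed and stained in a single step (final 0.05% Triton X-100, 1% formaldehyde, 1 ug/ml Hoechst) and their nuclei counted on 4× images. Treatment had been applied by pin tool the day after seeding as one drug alone or as a fixed anchor-drug dose with five library-drug doses (not always all listed) in √10 steps. Relative viability is the nuclei count of treated wells divided by that of vehicle wells, and values are medians of duplicate plates.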

Dasatinib + Bortezomib = compound: Cc1nc(Nc2ncc(C(=O)Nc3c(C)cccc3Cl)s2)cc(N2CCN(CCO)CC2)n1 [Dasatinib] + CC(C)C[C@H](NC(=O)[C@H](Cc1ccccc1)NC(=O)c1cnccn1)B(O)O [Bortezomib] (partner 0.002 µM)
Procedure, shortened: as §1

Dasatinib + Olaparib = compound: Cc1nc(Nc2ncc(C(=O)Nc3c(C)cccc3Cl)s2)cc(N2CCN(CCO)CC2)n1 [Dasatinib] + O=C(c1cc(Cc2n[nH]c(=O)c3ccccc23)ccc1F)N1CCN(C(=O)C2CC2)CC1 [Olaparib] (partner 8 µM)
Procedure, shortened: as §1

ALW-II-49-7 + Alpelisib = compound: Cc1ccc(C(=O)Nc2cccc(C(F)(F)F)c2)cc1Nc1cncc(C(N)=O)c1 [ALW-II-49-7] + Cc1nc(NC(=O)N2CCC[C@H]2C(N)=O)sc1-c1ccnc(C(C)(C)C(F)(F)F)c1 [Alpelisib] (partner 2 µM)
Procedure, shortened: as §1

Cell Line	relative viability (Dasatinib + Phenformin; first compound 0.005 µM)	relative viability (Dasatinib + Phenformin; first compound 0.01581 µM)	relative viability (Dasatinib + Phenformin; first compound 0.05 µM)	relative viability (Dasatinib + Phenformin; first compound 0.1581 µM)	relative viability (Dasatinib + Phenformin; first compound 0.5 µM)	relative viability (Dasatinib + Bortezomib; first compound 0.005 µM)	relative viability (Dasatinib + Bortezomib; first compound 0.01581 µM)	relative viability (Dasatinib + Bortezomib; first compound 0.05 µM)	relative viability (Dasatinib + Bortezomib; first compound 0.1581 µM)	relative viability (Dasatinib + Bortezomib; first compound 0.5 µM)	relative viability (Dasatinib + Olaparib; first compound 0.005 µM)	relative viability (Dasatinib + Olaparib; first compound 0.01581 µM)	relative viability (Dasatinib + Olaparib; first compound 0.05 µM)	relative viability (Dasatinib + Olaparib; first compound 0.1581 µM)	relative viability (Dasatinib + Olaparib; first compound 0.5 µM)	relative viability (ALW-II-49-7 + Alpelisib; first compound 0.08 µM)	relative viability (ALW-II-49-7 + Alpelisib; first compound 0.253 µM)	relative viability (ALW-II-49-7 + Alpelisib; first compound 0.8 µM)	relative viability (ALW-II-49-7 + Alpelisib; first compound 2.53 µM)	relative viability (ALW-II-49-7 + Alpelisib; first compound 8 µM)
NCI-H2009	0.554	0.47	0.366	0.206	0.187	1.13	0.97	0.884	0.354	0.173	0.715	0.731	0.772	0.556	0.127	1.12	1.09	1.12	0.957	0.825
NCI-H2023	0.355	0.331	0.291	0.224	0.173	0.788	0.818	0.791	0.705	0.669	0.43	0.456	0.377	0.378	0.379	0.66	0.575	0.657	0.641	0.677
NCI-H2085	0.636	0.651	0.458	0.215	0.162	1.09	0.958	0.86	0.397	0.262	0.799	0.745	0.553	0.292	0.187	1.03	0.903	0.971	0.895	1.01
NCI-H2087	0.517	0.461	0.562	0.343	0.161	0.751	0.769	0.869	0.815	0.665	0.635	0.55	0.902	0.42	0.349	1.26	1.1	1.09	0.973	0.996
NCI-H2126	0.56	0.521	0.471	0.39	0.285	1.08	1.07	1.16	0.988	0.587	0.932	0.84	0.845	0.681	0.416	0.713	0.723	0.726	0.763	0.738
NCI-H2228	0.354	0.298	0.28	0.242	0.218	0.645	0.988	0.888	0.691	0.47	0.847	0.647	0.714	0.464	0.273	0.647	0.649	0.866	0.75	0.769
NCI-H2347	0.278	0.209	0.22	0.178	0.212	0.732	0.857	0.929	0.324	0.368	0.566	0.508	0.482	0.269	0.256	1.08	0.98	0.986	0.869	0.873
NCI-H2405	0.363	0.301	0.258	0.153	0.137	0.879	0.956	0.616	0.475	0.306	0.749	0.531	0.458	0.282	0.231	0.741	0.829	0.743	0.248	0.753
NCI-H3122	0.36	0.364	0.363	0.326	0.295	0.988	0.94	1.02	1.05	0.815	0.606	0.543	0.657	0.574	0.534	0.824	0.651	0.865	0.873	0.981
PC-3 [JPC-3]	0.482	0.458	0.453	0.473	0.305	0.839	0.733	0.925	0.818	0.465	1.22	1.14	1.16	1.08	0.609	1.02	0.989	0.987	1.09	1.02
PC-14	0.618	0.681	0.553	0.339	0.152	0.822	0.96	0.969	0.585	0.35	0.29	0.31	0.368	0.224	0.0781	0.833	0.541	0.838	0.911	0.828
RERF-LC-KJ	0.406	0.348	0.363	0.355	0.305	1.1	0.765	0.965	0.955	0.77	0.906	0.836	0.87	0.788	0.816	0.785	0.567	0.754	0.745	0.882
SK-LU-1	0.342	0.257	0.193	0.179	0.148	0.954	0.777	0.726	0.33	0.406	0.471	0.317	0.323	0.188	0.167	0.966	1.01	1.11	0.674	0.558
SW 1573	0.417	0.326	0.288	0.217	0.18	0.875	0.881	0.861	0.618	0.395	0.424	0.378	0.347	0.253	0.327	0.911	0.684	0.914	0.947	0.665
